# Like-named read-outs stand apart in the source and are kept apart here.
# Key:
# [1] = target: T1, PI3K delta (Homo sapiens, UniProt O00329); experiment: PI3K delta kinase assay (Kinase-Glo luminescence); format: biochemical
# T1 construct: for the full-length p110-d subunit are generated and fused by overlapping PCR; p85(iSH2) fusion partner (see partner chain) (N); His tag (C); made in house; host or cells: baculovirus; Tn5 (Trichoplusia ni) or TiniPro insect cells
# Summary of the method: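 Inhibition is derived from luminescent detection of unconsumed ATP. The reaction runs for one hour at ambient temperature and contains the δ isoform fusion protein, phosphatidylinositol substrate and low (1 μM) ATP. Eight compound concentrations are tested in single, and a 4-parameter logistic model is used to calculate IC50.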
# [2] = test system: PKB Ser473 phosphorylation in Rat1-myr-HA-p110 delta cells; experiment: Reverse protein array assay, PKB Ser473 phosphorylation in Rat1-myr-p110 delta cells; format: cell-based; conditions: read-out: p-PKB IC50
# Summary of the method: (§1)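 Compound exposure lasted 30 min in Rat1 cells bearing membrane-targeted HA-p110 isoforms, using 8 serial concentrations. Arrayed lysates, each spotted at four dilutions, gave relative fluorescence signals for phospho-Ser473 PKB.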
# [3] = test system: PKB Ser473 phosphorylation in Rat1-myr-HA-p110 beta cells; experiment: Reverse protein array assay, PKB Ser473 phosphorylation in Rat1-myr-p110 beta cells; format: cell-based; conditions: 0.5 h, pAkt Ser473, 30 minutes incubation, read-out: p-PKB IC50
# Summary of the method: as §1
# [4] = target: T2, PI3K beta (Homo sapiens, UniProt P42338); experiment: PI3K beta kinase assay (Kinase-Glo luminescence); format: biochemical
# T2 construct: for the full-length p110-b subunit are generated and fused by overlapping PCR; p85(iSH2) fusion partner (see partner chain) (N); His tag (C); made in house; host or cells: baculovirus; Tn5 (Trichoplusia ni) or TiniPro insect cells
# Summary of the method: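 IC50 is derived by four-parameter logistic curve fitting of Kinase-Glo luminescence, which measures ATP left after a 60 min room-temperature reaction. Conditions are 25 nM His-tagged p85(iSH2)-p110β, 1 μM ATP and 10 μg/mL bovine liver phosphatidylinositol.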
# [5] = test system: PKB Ser473 phosphorylation in Rat1-myr-HA-p110 alpha cells; experiment: Reverse protein array assay, PKB Ser473 phosphorylation in Rat1-myr-p110 alpha cells; format: cell-based; conditions: 0.5 h, pAkt Ser473, 30 minutes compound incubation, read-out: p-PKB IC50
# Summary of the method: as §1
# [6] = target: T3, PI3K gamma (Homo sapiens, UniProt P48736); experiment: PI3K gamma kinase assay (Kinase-Glo luminescence); format: biochemical
# T3 construct: His tag (C); made in house; host or cells: baculovirus (pVL1393); Tn5 or TiniPro insect cells; construct from Roger Williams lab, MRC LMB
# Description: In a more preferred assay, the kinase reaction is performed in a final volume of 10 μL per well of a low volume non binding CORNING, 384 well black plate (Cat. No. #3676). The final concentrations of ATP and phosphatidyl inositol (PI) in the assay are 1 μM and 10 μg/mL respectively. The reaction is started by the addition of ATP.
# The components of the assay are added per well as follows:
# […] in 90% DMSO per well, in columns 1-20, 8 concentrations (1/3 and 1/3.33 serial dilution step) in single. • Low control: […] of 90% DMSO in half the wells of columns 23-24 (0.45% in final). • High control: […] of reference compound (e.g. compound of Example 7 in WO 2006/122806) in the other half of columns 23-24 (2.5 μM in final). • Standard: […] of reference compound as just mentioned diluted as the test compounds in columns 21-22 • 20 mL ‘buffer’ are prepared per assay: • 200 μL of 1M TRIS HCl pH7.5 (10 mM in final) • 60 μL of 1M MgCl2 (3 mM in final) • 500 μL of 2M NaCl (50 mM in final) • 100 μL of 10% CHAPS (0.05% in final) • 200 μL of 100 mM DTT (1 mM in final) • 18.94 mL of nanopure water • 10 mL ‘PI’ are prepared per assay: • 200 μL of 1 mg/ml L-alpha-Phosphatidylinositol (Liver Bovine, Avanti Polar Lipids Cat. No. 840042C MW=909.12) prepared in 3% OctylGlucoside (10 μg/ml in final) • 9.8 mL of ‘buffer’ • 10 mL ‘ATP’ are prepared per assay: • 6.7 μL of 3 mM stock of ATP giving a final concentration of 1 μM per well • 10 mL of ‘buffer’ • 2.5 mL of each PI3K construct are prepared per assay in ‘PI’ with the following final concentration: • 10 nM PI3K alfa EMV B1075 • 25 nM beta EMV BV949 • 10 nM delta EMV BV1060 • 150 nM gamma EMV BV950 • 5 μL of ‘PI/PI3K’ are added per well. • 5 μl ‘ATP’ are added per well to start the reaction. • The plates are then incubated at room temperature for 60 minutes (alfa, beta, delta) or 120 minutes (gamma). • The reaction is terminated by the addition of 10 μL Kinase-Glo (Promega Cat. No. #6714). • The assay plates are read after 10 minutes in Synergy 2 reader (BioTek, Vermont USA) with an integration time of 100 milliseconds and sensitivity set to 191. • Output: The High control is around 60'000 counts and the Low control is 30'000 or lower • This luminescence assay gives a useful Z′ ratio between 0.4 and 0.7
# IC50 is determined by a four parameter curve fitting routine that comes along with “excel fit”. […] Alternatively, IC50 values are calculated using idbsXLfit model 204, which is a 4 parameter logistic model.
# [7] = target: T4, PI3K alpha (Homo sapiens, UniProt P42336); experiment: PI3K alpha kinase assay (Kinase-Glo luminescence); format: biochemical
# T4 construct: p85(iSH2) fusion partner (see partner chain) (N); His tag (C); made in house; host or cells: baculovirus; Tn5 (Trichoplusia ni) or TiniPro insect cells
# Summary of the method: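 Luminescent ATP-depletion assay (Kinase-Glo) with 10 nM PI3Kα and 10 μg/mL phosphatidylinositol as lipid substrate at 1 μM ATP. Incubation lasts 60 min at room temperature.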
# [8] = test system: S6 Ribosomal Protein phosphorylation Ser235/236 in TSC1 null mouse embryo fibroblast (MEF) cells; experiment: Reverse protein array assay, S6 Ribosomal Protein phosphorylation Ser235/236 in TSC1 null MEF cells; format: cell-based; conditions: 1 h, pS6 ribosomal protein Ser235/236, 60 minutes incubation, read-out: p-S6 IC50
# Summary of the method: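 TSC1−/− MEFs, seeded and held ≥20 h at 37 °C/5% CO2, were exposed to 8-step serial compound dilutions (0.02% DMSO final; DMSO vehicle control) for 60 min at 37 °C. Cells were then lysed on ice for 10 min and lysates spotted onto reverse protein array chips.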
# [9] = target: T5, mTOR (Homo sapiens, UniProt P42345); experiment: Biochemical assay for m-TOR by TR-FRET; conditions: 8 μM ATP, 400 nM GFP-4EBP1, 0.5 nM mTOR
# T5 construct: purchased Invitrogen Corporation (Carlsbad/CA, USA) PV4753
# Summary of the method: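 Enzyme 0.5 nM, GFP-4EBP1 400 nM, ATP 8 μM (all final); 50 mM HEPES pH 7.5, 10 mM MnCl2, 1 mM DTT; rt. Detection: Tb-α-p4EBP1 [pT46] 0.5 nM in EDTA, TR-FRET, 15 min. Reference compound on every plate, 16-point duplicate dilutions.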
# [10] = Solubility at pH 6.8; format: physicochemical
# Summary of the method: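 Following the procedure of Zhou et al. (2007), compound solubility was determined at pH 6.8.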
# [11] = pH 6.8, aqueous buffer, thermodynamic from solid, read-out: solubility
# T3 sequence (P48736 144-1102 limits assumed): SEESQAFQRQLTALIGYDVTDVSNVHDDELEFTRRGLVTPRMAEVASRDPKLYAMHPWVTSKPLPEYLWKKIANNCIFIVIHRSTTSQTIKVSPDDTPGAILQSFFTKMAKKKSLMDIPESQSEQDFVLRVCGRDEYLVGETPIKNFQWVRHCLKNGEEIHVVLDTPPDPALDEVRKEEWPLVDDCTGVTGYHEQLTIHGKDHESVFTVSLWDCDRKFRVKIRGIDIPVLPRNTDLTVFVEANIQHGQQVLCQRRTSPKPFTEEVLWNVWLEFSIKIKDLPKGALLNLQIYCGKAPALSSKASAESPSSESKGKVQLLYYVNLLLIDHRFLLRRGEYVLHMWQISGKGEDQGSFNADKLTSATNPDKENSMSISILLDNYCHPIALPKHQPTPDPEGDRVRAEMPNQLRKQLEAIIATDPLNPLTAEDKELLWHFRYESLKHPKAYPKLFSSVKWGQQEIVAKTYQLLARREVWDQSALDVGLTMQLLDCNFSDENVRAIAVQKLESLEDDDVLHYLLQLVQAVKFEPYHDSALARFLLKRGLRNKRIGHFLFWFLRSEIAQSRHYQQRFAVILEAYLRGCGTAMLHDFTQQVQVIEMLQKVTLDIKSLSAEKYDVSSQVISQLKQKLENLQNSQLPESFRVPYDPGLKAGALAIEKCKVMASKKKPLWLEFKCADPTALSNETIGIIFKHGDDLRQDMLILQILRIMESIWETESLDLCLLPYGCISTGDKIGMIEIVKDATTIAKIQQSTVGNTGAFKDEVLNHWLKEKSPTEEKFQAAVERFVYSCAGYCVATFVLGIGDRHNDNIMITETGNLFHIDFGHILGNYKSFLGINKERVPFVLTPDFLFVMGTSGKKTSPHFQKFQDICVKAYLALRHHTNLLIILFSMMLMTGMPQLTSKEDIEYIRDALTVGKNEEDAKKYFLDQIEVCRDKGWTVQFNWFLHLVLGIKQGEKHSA
# T2 sequence (P42338 with tags, fused parts or gaps limits assumed): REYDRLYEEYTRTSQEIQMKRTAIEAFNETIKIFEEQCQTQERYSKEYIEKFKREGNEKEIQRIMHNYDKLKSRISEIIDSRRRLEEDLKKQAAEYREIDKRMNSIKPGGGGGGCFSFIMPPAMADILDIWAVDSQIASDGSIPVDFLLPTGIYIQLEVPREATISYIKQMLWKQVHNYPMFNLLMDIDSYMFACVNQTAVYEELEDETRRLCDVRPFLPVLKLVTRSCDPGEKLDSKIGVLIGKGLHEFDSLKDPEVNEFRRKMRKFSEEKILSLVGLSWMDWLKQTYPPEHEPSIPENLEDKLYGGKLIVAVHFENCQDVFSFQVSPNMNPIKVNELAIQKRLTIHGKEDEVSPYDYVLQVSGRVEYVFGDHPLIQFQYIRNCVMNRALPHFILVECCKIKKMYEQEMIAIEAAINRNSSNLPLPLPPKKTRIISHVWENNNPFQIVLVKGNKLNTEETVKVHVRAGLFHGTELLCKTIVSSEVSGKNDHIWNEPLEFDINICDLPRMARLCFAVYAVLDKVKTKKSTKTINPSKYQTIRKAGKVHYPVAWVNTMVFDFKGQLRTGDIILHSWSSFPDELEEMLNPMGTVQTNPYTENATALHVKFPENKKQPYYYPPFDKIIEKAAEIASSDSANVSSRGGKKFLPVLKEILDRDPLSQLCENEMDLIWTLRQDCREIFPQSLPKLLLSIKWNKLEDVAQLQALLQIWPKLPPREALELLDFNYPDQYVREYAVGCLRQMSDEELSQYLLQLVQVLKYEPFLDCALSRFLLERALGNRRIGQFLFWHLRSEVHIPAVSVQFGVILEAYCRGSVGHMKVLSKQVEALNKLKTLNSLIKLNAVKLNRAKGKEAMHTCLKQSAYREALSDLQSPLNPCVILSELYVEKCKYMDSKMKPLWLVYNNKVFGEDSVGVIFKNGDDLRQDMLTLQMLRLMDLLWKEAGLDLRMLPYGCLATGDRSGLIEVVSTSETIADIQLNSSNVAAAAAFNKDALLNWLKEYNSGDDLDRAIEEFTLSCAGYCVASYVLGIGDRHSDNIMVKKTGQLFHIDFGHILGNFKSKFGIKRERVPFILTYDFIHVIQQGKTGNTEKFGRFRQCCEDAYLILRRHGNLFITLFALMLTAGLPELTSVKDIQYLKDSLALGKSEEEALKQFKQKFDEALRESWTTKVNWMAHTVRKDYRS
# T1 sequence (O00329 with tags, fused parts or gaps limits assumed): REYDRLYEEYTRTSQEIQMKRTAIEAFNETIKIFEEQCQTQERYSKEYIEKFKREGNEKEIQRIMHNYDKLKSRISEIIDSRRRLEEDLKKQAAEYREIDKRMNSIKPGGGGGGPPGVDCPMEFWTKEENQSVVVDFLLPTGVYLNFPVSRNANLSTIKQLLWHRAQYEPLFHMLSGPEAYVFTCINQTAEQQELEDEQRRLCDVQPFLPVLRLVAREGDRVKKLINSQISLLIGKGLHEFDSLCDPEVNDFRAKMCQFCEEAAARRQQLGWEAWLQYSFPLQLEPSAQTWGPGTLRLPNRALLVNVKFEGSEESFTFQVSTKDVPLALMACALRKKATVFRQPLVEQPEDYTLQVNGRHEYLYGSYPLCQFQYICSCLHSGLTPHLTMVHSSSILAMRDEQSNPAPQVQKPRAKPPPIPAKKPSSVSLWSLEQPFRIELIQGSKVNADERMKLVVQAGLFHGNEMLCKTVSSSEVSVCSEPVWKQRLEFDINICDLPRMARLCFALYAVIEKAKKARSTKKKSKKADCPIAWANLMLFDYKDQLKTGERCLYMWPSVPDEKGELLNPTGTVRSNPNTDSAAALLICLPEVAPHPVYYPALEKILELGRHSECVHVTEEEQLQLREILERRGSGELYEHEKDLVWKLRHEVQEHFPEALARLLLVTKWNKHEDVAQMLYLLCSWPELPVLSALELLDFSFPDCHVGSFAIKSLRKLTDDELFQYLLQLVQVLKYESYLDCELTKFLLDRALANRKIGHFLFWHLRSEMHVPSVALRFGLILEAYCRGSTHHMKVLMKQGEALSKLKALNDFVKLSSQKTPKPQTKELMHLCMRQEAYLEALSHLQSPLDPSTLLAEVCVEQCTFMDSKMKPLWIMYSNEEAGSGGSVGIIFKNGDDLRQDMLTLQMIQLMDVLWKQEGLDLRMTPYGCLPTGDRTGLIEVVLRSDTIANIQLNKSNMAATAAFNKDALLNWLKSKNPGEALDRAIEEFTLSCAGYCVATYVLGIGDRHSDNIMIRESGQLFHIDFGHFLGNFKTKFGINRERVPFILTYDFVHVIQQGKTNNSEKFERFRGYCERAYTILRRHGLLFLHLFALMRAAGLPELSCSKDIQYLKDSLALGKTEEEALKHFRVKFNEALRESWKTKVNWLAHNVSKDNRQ
# T5 sequence (P42345 1360-2549 limits assumed): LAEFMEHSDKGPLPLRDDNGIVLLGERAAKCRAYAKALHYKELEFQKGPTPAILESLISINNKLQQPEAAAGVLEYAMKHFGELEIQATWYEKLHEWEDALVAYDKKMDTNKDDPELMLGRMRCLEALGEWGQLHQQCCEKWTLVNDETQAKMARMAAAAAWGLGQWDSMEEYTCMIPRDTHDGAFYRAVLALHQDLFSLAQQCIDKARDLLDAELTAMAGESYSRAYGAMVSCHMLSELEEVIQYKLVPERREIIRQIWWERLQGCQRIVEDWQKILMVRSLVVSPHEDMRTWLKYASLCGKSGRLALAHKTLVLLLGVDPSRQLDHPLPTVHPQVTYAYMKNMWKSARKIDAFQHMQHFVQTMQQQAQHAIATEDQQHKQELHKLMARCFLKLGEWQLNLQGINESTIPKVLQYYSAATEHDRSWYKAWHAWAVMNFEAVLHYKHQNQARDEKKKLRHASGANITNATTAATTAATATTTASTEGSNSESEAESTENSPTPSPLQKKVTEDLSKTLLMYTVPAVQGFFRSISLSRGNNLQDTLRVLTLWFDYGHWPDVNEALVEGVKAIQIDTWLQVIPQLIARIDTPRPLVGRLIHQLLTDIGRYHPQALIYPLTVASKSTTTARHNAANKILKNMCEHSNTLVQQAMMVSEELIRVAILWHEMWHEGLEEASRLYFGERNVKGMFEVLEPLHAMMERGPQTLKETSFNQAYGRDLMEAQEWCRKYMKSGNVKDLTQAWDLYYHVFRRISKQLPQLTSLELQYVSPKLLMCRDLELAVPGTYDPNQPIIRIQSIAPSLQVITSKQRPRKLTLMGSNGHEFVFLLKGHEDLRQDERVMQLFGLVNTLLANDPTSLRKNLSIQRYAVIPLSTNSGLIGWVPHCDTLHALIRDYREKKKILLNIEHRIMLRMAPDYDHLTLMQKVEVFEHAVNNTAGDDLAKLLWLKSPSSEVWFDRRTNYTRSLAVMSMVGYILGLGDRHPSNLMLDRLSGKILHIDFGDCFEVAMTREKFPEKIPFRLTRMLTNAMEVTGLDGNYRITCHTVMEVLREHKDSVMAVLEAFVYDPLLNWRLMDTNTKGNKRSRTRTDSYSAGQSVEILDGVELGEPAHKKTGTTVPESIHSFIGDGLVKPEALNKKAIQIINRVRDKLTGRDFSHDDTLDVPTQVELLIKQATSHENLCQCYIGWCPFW
IC50 [1] [µM],IC50 [2] [µM],IC50 [3] [µM],IC50 [4] [µM],IC50 [5] [µM],IC50 [6] [µM],IC50 [7] [µM],IC50 [9] [µM],"solubility [10, 11] [mg/mL]",solubility ([10]; pH 6.8) [mg/mL],Structure (SMILES),IC50 [8] [µM]
0.085,0.219,0.136,0.612,0.141,0.788,0.146,0.162,,,"CCn1nccc1-n1c(=O)n(C)c2cnc3ccc(-c4ccc(OC)nc4)cc3c21 [Example 2.6, 1-(2-Ethyl-2H-pyrazol-3-yl)-8-(6-methoxy-pyridin-3-yl)-3-methyl-1,3-dihydro-imidazo[4,5-c]quinolin-2-one]",
0.018,0.602,0.273,0.205,0.375,0.391,0.032,,,,Cc1nn(C)cc1-n1c(=O)n(C)c2cnc3ccc(-c4ccc(NCCO)nc4)cc3c21 [Example 21.2],0.666
0.465,,,,,0.335,0.25,,0.355,,"Cc1nn(C)c(C)c1-n1c(=O)n(C)c2cnc3ccc(-c4ccccc4)cc3c21 [Example 37.2, 3-Methyl-8-phenyl-1-(1,3,5-trimethyl-1H-pyrazol-4-yl)-1,3-dihydro-imidazo[4,5-c]quinolin-2-one]",

# The remaining lines, values behind:
Structure (SMILES),IC50 [1] [µM],IC50 [2] [µM],IC50 [3] [µM],IC50 [4] [µM],IC50 [5] [µM],IC50 [6] [µM],IC50 [7] [µM],IC50 [9] [µM],"solubility [10, 11] [mg/mL]",solubility ([10]; pH 6.8) [mg/mL],IC50 [8] [µM]
"COc1ccc(-c2ccc3ncc4c(c3c2)n(-c2cn(C)nc2Cl)c(=O)n4C)cc1OC [Example 1.10, 1-(3-Chloro-1-methyl-1H-pyrazol-4-yl)-8-(3,4-dimethoxy-phenyl)-3-methyl-1,3-dihydro-imidazo[4,5-c]quinolin-2-one]",0.01,0.005,< 0.005,0.006,< 0.005,0.238,0.009,,,,0.001
"COc1ncc(-c2ccc3ncc4c(c3c2)n(-c2cn(C)nc2C)c(=O)n4C)cc1F [Example 13, 1-(1,3-Dimethyl-1H-pyrazol-4-yl)-8-(5-fluoro-6-methoxy-pyridin-3-yl)-3-methyl-1,3-dihydro-imidazo[4,5-c]quinolin-2-one]",0.015,,,0.025,,0.087,0.012,0.063,,,0.01
"COc1cc(-c2ccc3ncc4c(c3c2)n(-c2c(C)nn(C)c2C)c(=O)n4C)ccc1O [Example 31, 8-(4-Hydroxy-3-methoxy-phenyl)-3-methyl-1-(1,3,5-trimethyl-1H-pyrazol-4-yl)-1,3-dihydro-imidazo[4,5-c]quinolin-2-one]",0.03,0.064,0.049,0.067,0.029,0.118,0.029,0.177,,,
"Cc1nn(C)cc1-n1c(=O)n(C)c2cnc3ccc(-c4cc(O)cc(F)c4)cc3c21 [Example 33, 1-(1,3-Dimethyl-1H-pyrazol-4-yl)-8-(3-fluoro-5-hydroxy-phenyl)-3-methyl-1,3-dihydro-imidazo[4,5-c]quinolin-2-one]",0.016,0.399,0.214,0.046,0.162,0.128,0.009,0.11,,,
"Cc1nn(C)cc1-n1c(=O)n(C)c2cnc3ccc(-c4ccc(C(=O)N(C)C)cc4)cc3c21 [Example 48, 4-[1-(1,3-Dimethyl-1H-pyrazol-4-yl)-3-methyl-2-oxo-2,3-dihydro-1H-imidazo[4,5-c]quinolin-8-yl]-N,N-dimethyl-benzamide]",,,,,,0.76,,,,0.002,
"Cc1nn(C)cc1-n1c(=O)n(C)c2cnc3ccc(-c4cnccn4)cc3c21 [Example 115, 1-(1,3-Dimethyl-1H-pyrazol-4-yl)-3-methyl-8-pyrazin-2-yl-1,3-dihydro-imidazo[4,5-c]quinolin-2-one]",0.8,,0.308,,0.208,0.851,0.148,,0.128,,
"Cc1nn(C)cc1-n1c(=O)n(C)c2cnc3ccc(-c4cncc(NS(C)(=O)=O)c4)cc3c21 [Example 120, N-{5-[1-(1,3-Dimethyl-1H-pyrazol-4-yl)-3-methyl-2-oxo-2,3-dihydro-1H-imidazo[4,5-c]quinolin-8-yl]-pyridin-3-yl}-methanesulfonamide]",0.01,,,0.018,,0.116,0.011,0.005,,,0.355
"Cc1nn(C)cc1-n1c(=O)n(C)c2cnc3ccc(-c4ccc(-c5nn[nH]n5)nc4)cc3c21 [Example 123, 1-(1,3-Dimethyl-1H-pyrazol-4-yl)-3-methyl-8-[6-(2H-tetrazol-5-yl)-pyridin-3-yl]-1,3-dihydro-imidazo[4,5-c]quinolin-2-one]",,,,,,0.173,0.446,0.232,0.065,,

# From US20140005163A1 (NOVARTIS AG, priority 2010, published 2014)
